This passage reports Ki results from US20260125375A1 (Pfizer Inc., priority 2022, published 2026).

One assay concerns the target T1, CBL-B (residues 36-427) (Homo sapiens, UniProt Q13191).
T1 construct: Purified CBL-B (residues 36-427) and C-CBL (residues 46-435) proteins from baculovirus-infected insect cells; made in house; host or cells: baculovirus-infected insect cells
The assay can be described thus: Ligand Displacement Assay (LDA), HTRF competitive binding against BODIPY-labeled fluorescent tracer, CBL-B. To be noted: geometric mean of the number of tests, read-out: CBL-B Ki (nM) GMean. The text has this: (§1) Ligand Displacement Assay (LDA)
(§2) The purpose of the homogeneous time-resolved fluorescence energy transfer (HTRF) ligand displacement assay is to determine whether the compounds of the disclosure are competitive with a BODIPY-labeled compound; “fluorescent tracer” aka [6-cyclopropyl-5-(17-{5-[(3,5-dimethyl-2H-pyrrol-2-ylidene-KN)methyl]-1H-pyrrol-2-yl-κN}-15-oxo-5,8,11-trioxa-2,14-diazaheptadecan-1-yl)-N-(3-{3-[(4-methyl-4H-1,2,4-triazol-3-yl)methyl]oxetan-3-yl}phenyl)pyridine-2-carboxamidato](difluorido)boron and to assess CBL-B binding selectivity over C-CBL. The synthesis of this fluorescent tracer compound is described below.
(§3) Purified CBL-B (residues 36-427) and C-CBL (residues 46-435) proteins from baculovirus-infected insect cells were biotin labeled on their amino-terminal AviTag™ epitopes by the E. coli biotin ligase BirA to bind terbium-labeled streptavidin (SA-Tb). After optimizing the assays and determining KD values for the fluorescent tracer to CBL-B and C-CBL, compounds were tested using three-fold serial dilutions in duplicate from a top concentration of […] with a final DMSO concentration of 2%. […] The Ki (nM) values reported are the geometric means (GMean) of the number of tests conducted.

The next assay addresses T2, C-CBL (residues 46-435) (Homo sapiens, UniProt P22681).
T2 construct: Purified CBL-B (residues 36-427) and C-CBL (residues 46-435) proteins from baculovirus-infected insect cells; made in house; host or cells: baculovirus-infected insect cells
T2 sequence (P22681 46-435): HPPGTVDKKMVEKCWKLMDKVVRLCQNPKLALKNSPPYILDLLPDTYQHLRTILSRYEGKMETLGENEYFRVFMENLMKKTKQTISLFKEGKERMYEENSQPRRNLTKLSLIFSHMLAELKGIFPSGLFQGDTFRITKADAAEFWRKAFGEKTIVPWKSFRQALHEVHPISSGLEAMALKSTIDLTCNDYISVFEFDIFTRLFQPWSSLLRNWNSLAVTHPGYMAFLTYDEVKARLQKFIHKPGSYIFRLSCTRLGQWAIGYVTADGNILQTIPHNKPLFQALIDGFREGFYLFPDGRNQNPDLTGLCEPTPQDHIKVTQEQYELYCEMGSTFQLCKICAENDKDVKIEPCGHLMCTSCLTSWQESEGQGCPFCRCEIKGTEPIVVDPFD
The assay can be described thus: Ligand Displacement Assay (LDA), HTRF competitive binding against BODIPY-labeled fluorescent tracer, C-CBL. The following applies: geometric mean of the number of tests, read-out: C-CBL Ki (nM) GMean.
From the text: as §1, §2, §3
On the technique in general: In TR-FRET formats the signal depends on donor and acceptor labels being close together.

What is called Ki is the equilibrium dissociation constant of an inhibitor or competing ligand from its target. For the molecule `Cn1cnnc1CC1(c2cccc(-c3n[nH]c4cnc(C(F)(F)F)nc34)c2)COC1` [Example B2, 3-(3-{3-[(4-methyl-4H-1,2,4-triazol-3-yl)methyl]oxetan-3-yl}phenyl)-5-(trifluoromethyl)-1H-pyrazolo[4,3-d]pyrimidine], the Ki on CBL-B (residues 36-427) turned out to be 398 nM; at C-CBL (residues 46-435) it was 2400 nM.
As to `C[C@H](N[C@H]1COC[C@H]1O)c1nc(C(F)(F)F)cc2c(-c3cccc([C@H](c4nncn4C)C4CCC4)c3)n[nH]c12` (single isomer, unassigned) [Example D61], the Ki at CBL-B (residues 36-427) is 22 nM; at C-CBL (residues 46-435), 145 nM.
The corresponding values for `CN1CCC[C@@H]1COc1nc(C(F)(F)F)cc2c(-c3cccc(C4(Cc5nncn5C)COC4)c3)n[nH]c12` [Example J6, 7-{[(2R)-1-methylpyrrolidin-2-yl]methoxy}-3-(3-{3-[(4-methyl-4H-1,2,4-triazol-3-yl)methyl]oxetan-3-yl}phenyl)-5-(trifluoromethyl)-1H-pyrazolo[3,4-c]pyridine] are 48.9 nM and 196 nM.
For `C[C@@H](N[C@@H]1COC[C@H]1O)c1nc(C(F)(F)F)cc2c(-c3cccc([C@H](c4nncn4C)C4CCC4)c3)n[nH]c12` (single isomer, unassigned) [Example D60] the same measures were 12.3 nM and 82.3 nM.
For `Cn1cnnc1CC1(c2cccc(-c3n[nH]c4c(OC5CCCC5)nc(C(F)(F)F)cc34)c2)COC1` [Example J7, 7-(cyclopentyloxy)-3-(3-{3-[(4-methyl-4H-1,2,4-triazol-3-yl)methyl]oxetan-3-yl}phenyl)-5-(trifluoromethyl)-1H-pyrazolo[3,4-c]pyridine] the same measures were 92 nM and 420 nM.
Regarding `CC(=O)NC(C)c1nc(C(F)(F)F)cc2c(-c3cccc(C4(Cc5nncn5C)COC4)c3)n[nH]c12` (single isomer, unassigned) [Example M1, N-{(1ξ)-1-[3-(3-{3-[(4-methyl-4H-1,2,4-triazol-3-yl)methyl]oxetan-3-yl}phenyl)-5-(trifluoromethyl)-1H-pyrazolo[3,4-c]pyridin-7-yl]ethyl}acetamide], the inhibition constant (Ki) on CBL-B (residues 36-427) was found to be 26.3 nM; on C-CBL (residues 46-435) it was 79.4 nM.
With `Cn1cnnc1[C@@H](c1cccc(-c2n[nH]c3ncc(C(F)(F)F)cc23)c1)C1CCC1` [Example A5, 3-{3-[(R)-cyclobutyl(4-methyl-4H-1,2,4-triazol-3-yl)methyl]phenyl}-5-(trifluoromethyl)-1H-pyrazolo[3,4-b]pyridine], the Ki at CBL-B (residues 36-427) is 89.1 nM; at C-CBL (residues 46-435), 1060 nM.
Consider `CC(N[C@H](C)[C@H](C)O)c1nc(C(F)(F)F)cc2c(-c3cccc([C@H](c4nncn4C)C4CCC4)c3)n[nH]c12` (single isomer, unassigned) [Example C116], for which the figures for the Ki on CBL-B (residues 36-427) and at C-CBL (residues 46-435) were 18.2 nM and 204 nM, respectively.
The corresponding values for `C[C@@H](N[C@H]1COC[C@@H]1O)c1nc(C(F)(F)F)cc2c(-c3cccc([C@H](c4nncn4C)C4CCC4)c3)n[nH]c12` (single isomer, unassigned) [Example D62] are 4.3 nM and 39.8 nM.
The corresponding values for `Cn1cnnc1[C@@H](c1cccc(-c2n[nH]c3c(C4CCCN4)nc(C(F)(F)F)cc23)c1)C1CCC1` (single isomer, unassigned) [Example L4] are 19.2 nM and 178 nM.
For `C[C@H](NC(=O)OC(C)(C)C)c1nc(C(F)(F)F)cc2c(-c3cccc(C4(Cc5nncn5C)COC4)c3)n[nH]c12` [Example K8] the same measures were 33.4 nM and 133 nM.
Regarding `CC(=O)NC(C)c1nc(C(F)(F)F)cc2c(-c3cccc([C@H](c4nncn4C)C4CCC4)c3)n[nH]c12` (stereo partly drawn) [Example M3], the values for the Ki on CBL-B (residues 36-427) and at C-CBL (residues 46-435) were 29 nM and 214 nM, respectively.
For `CC(N[C@H]1CCC[C@@H]1O)c1nc(C(F)(F)F)cc2c(-c3cccc([C@H](c4nncn4C)C4CCCCC4)c3)n[nH]c12` (single isomer, unassigned) [Example C102] the same measures were 10.7 nM and 113 nM.
The corresponding values for `Cn1cnnc1[C@@H](c1cccc(-c2n[nH]c3c(CN[C@H]4CC[C@H]4O)nc(C(F)(F)F)cc23)c1)C1CCC1` (single isomer, unassigned) [Example D92] are 4.5 nM and 36.1 nM.
The corresponding values for `C[C@@H](N[C@H]1COC[C@H]1O)c1nc(C(F)(F)F)cc2c(-c3cccc([C@H](c4nncn4C)C4CCC4)c3)n[nH]c12` (single isomer, unassigned) [Example D58] are 14.3 nM and 173 nM.
For `CC(O)c1nc(C2CC2)cc2c(-c3cccc(C4(Cc5nncn5C)COC4)c3)n[nH]c12` (single isomer, unassigned) [Example H6, (1ξ)-1-[5-cyclopropyl-3-(3-{3-[(4-methyl-4H-1,2,4-triazol-3-yl)methyl]oxetan-3-yl}phenyl)-1H-pyrazolo[3,4-c]pyridin-7-yl]ethan-1-ol], the values for the Ki on CBL-B (residues 36-427) and at C-CBL (residues 46-435) were 35.6 nM and 142 nM, respectively.
As to `Cn1cnnc1CC1(c2cccc(-c3n[nH]c4ccc(F)cc34)c2)COC1` [Example B6, 5-fluoro-3-(3-{3-[(4-methyl-4H-1,2,4-triazol-3-yl)methyl]oxetan-3-yl}phenyl)-1H-indazole], the Ki was determined as 71.8 nM on CBL-B (residues 36-427) and 437 nM at C-CBL (residues 46-435).
For `Cn1cnnc1[C@@H](c1cccc(-c2n[nH]c3c(CN[C@@H]4CC[C@@H]4O)nc(C(F)(F)F)cc23)c1)C1CCC1` (single isomer, unassigned) [Example D93] the same measures were 0.8 nM and 2.4 nM.
The corresponding values for `C[C@H](N[C@H]1COC[C@H]1O)c1nc(C(F)(F)F)cc2c(-c3cccc([C@H](c4nncn4C)C4CCC4)c3)n[nH]c12` (single isomer, unassigned) [Example D57] are 5.2 nM and 46.7 nM.
For `CC(=O)NC(C)c1nc(C(F)(F)F)cc2c(-c3cccc([C@H](c4nncn4C)C4CCC4)c3)n[nH]c12` (single isomer, unassigned) [Example M2] the same measures were 30.9 nM and 225 nM.
For `CC(=O)NC(C)c1nc(C(F)(F)F)cc2c(-c3cccc(C4(Cc5nncn5C)COC4)c3)n[nH]c12` (single isomer, unassigned) [Example M6, N-{(1ξ)-1-[3-(3-{3-[(4-methyl-4H-1,2,4-triazol-3-yl)methyl]oxetan-3-yl}phenyl)-5-(trifluoromethyl)-1H-pyrazolo[3,4-c]pyridin-7-yl]ethyl}acetamide], the Ki on CBL-B (residues 36-427) turned out to be 19.5 nM; on C-CBL (residues 46-435), 68.6 nM.
For `CN(C)c1nc2[nH]nc(-c3cccc([C@H](c4nncn4C)C4CCC4)c3)c2cc1C(F)(F)F` [Example E1, 3-{3-[(R)-cyclobutyl(4-methyl-4H-1,2,4-triazol-3-yl)methyl]phenyl}-N,N-dimethyl-5-(trifluoromethyl)-1H-pyrazolo[3,4-b]pyridin-6-amine] the same measures were 268 nM and 2320 nM.
For `C[C@@H](N)c1nc(C(F)(F)F)cc2c(-c3cccc([C@H](c4nncn4C)C4CCCCC4)c3)n[nH]c12` [Example K1, (1R)-1-[3-{3-[(R)-cyclohexyl(4-methyl-4H-1,2,4-triazol-3-yl)methyl]phenyl}-5-(trifluoromethyl)-1H-pyrazolo[3,4-c]pyridin-7-yl]ethan-1-amine] the same measures were 36 nM and 289 nM.
As for `Cn1cnnc1[C@@H](c1cccc(-c2n[nH]c3ncc(Cl)cc23)c1)C1CCC1` [Example A4, 5-chloro-3-{3-[(R)-cyclobutyl(4-methyl-4H-1,2,4-triazol-3-yl)methyl]phenyl}-1H-pyrazolo[3,4-b]pyridine], the Ki on CBL-B (residues 36-427) was determined as 17.9 nM; on C-CBL (residues 46-435), 279 nM.
For `C[C@H](N)c1nc(C(F)(F)F)cc2c(-c3cccc([C@H](c4nncn4C)C4CCCCC4)c3)n[nH]c12` [Example K2, (1S)-1-[3-{3-[(R)-cyclohexyl(4-methyl-4H-1,2,4-triazol-3-yl)methyl]phenyl}-5-(trifluoromethyl)-1H-pyrazolo[3,4-c]pyridin-7-yl]ethan-1-amine] the same measures were 48.6 nM and 287 nM.
As for `CC[C@@H](c1cccc(-c2n[nH]c3c([C@H](C)NC[C@H](C)O)nc(C(F)(F)F)cc23)c1)c1nncn1C` (single isomer, unassigned) [Example D78], the Ki on CBL-B (residues 36-427) turned out to be 71.2 nM; at C-CBL (residues 46-435), 271 nM.
The corresponding values for `Cn1cnnc1CC1(c2cccc(-c3n[nH]c4cc(F)c(F)cc34)c2)COC1` [Example B5, 5,6-difluoro-3-(3-{3-[(4-methyl-4H-1,2,4-triazol-3-yl)methyl]oxetan-3-yl}phenyl)-1H-indazole] are 58.9 nM and 375 nM.
